Results reported in US20060142323A1, “Dual binding site acetylcholinesterase inhibitors for the treatment of alzheimer's disease” (priority 2002, published 2006).
Like-named read-outs stand apart in the source and are kept apart here.

How the values were obtained:
[1] = target: T1, AChE from human erythrocytes (Homo sapiens, UniProt P22303); assay: AChE inhibition (from human erythrocytes), Ellman method; assay type: biochemical; settings: 10 min preincubation at 30° C., 400 μM acetylthiocholine iodide, pH 8
T1 construct: 0.02 unit/ml AChE (Sigma Chemical Co. from human erythrocytes); purchased Sigma Chemical Co; host or cells: human erythrocytes
Experimental: AChE Inhibition (from Human Erythrocytes)
The method of Ellman et al. (Ellman, G. L.; Courtney, K. D.; Andres, B.; Featherstone, R. M. Biochem. Pharmacol. 1961, 7, 88-95) was followed. The assay solution consisted of 0.1 M phosphate buffer pH 8, 200 μM 5,5′-dithiobis(2-nitrobenzoic acid) (DTNB, Ellan's reagent), 0.02 unit/ml AChE (Sigma Chemical Co. from human erythrocytes), and 400 μM acetylthiocholine iodide as the substrate of the enzymatic reaction. The compounds tested were added to the assay solution and pre incubated with the enzyme for 10 min at 30° C. After that period, the substrate was added. The absorbance changes at 412 nm were recorded for 5 min with a Perkin-Elmer 550 SE UV/VIS spectrometer, the reaction rates were compared, and the percent inhibition due to the presence of test compounds was calculated.

[2] = target: T2, AChE from bovine erythrocytes (Bos taurus, UniProt P23795); assay: Acetylcholinesterase (AChE) inhibition (from bovine erythrocytes), Ellman method at 30° C., Digiscan 340T; assay type: biochemical
T2 construct: 0.02 units AChE (Sigma Chemical Co. from bovine erythrocytes); purchased Sigma Chemical Co; host or cells: bovine erythrocytes
T2 sequence (P23795 31-614 isoform P23795-2 limits assumed): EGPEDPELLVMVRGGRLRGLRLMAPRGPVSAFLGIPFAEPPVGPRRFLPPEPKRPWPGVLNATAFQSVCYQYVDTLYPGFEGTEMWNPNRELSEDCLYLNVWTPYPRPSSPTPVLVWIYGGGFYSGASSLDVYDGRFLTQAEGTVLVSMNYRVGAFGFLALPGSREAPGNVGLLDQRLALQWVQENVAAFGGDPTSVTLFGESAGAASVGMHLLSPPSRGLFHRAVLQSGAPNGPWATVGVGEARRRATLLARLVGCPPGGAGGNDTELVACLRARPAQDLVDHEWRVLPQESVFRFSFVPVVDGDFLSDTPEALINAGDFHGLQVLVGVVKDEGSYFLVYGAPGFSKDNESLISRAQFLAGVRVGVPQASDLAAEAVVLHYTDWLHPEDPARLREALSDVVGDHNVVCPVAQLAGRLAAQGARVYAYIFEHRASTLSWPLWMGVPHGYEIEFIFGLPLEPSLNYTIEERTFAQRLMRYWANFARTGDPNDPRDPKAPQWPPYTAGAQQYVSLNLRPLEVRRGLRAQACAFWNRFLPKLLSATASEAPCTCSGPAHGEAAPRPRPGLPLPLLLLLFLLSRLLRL
Experimental: Acetylcholinesterase (AChE) Inhibition (from Bovine Erythrocytes)
AChE inhibitory activity was evaluated at 30° C. by the colorimetric method reported by Ellman [Ellman, G. L.; Courtney, K. D.; Andres, B.; Featherstone, R. M. Biochem. Pharmacol. 1961, 7, 88-95]. The assay solution consisted of 0.1 M phosphate buffer pH 8, 0.3 mM 5,5′-dithiobis (2-nitrobenzoic acid) (DTNB, Ellman's reagent), 0.02 units AChE (Sigma Chemical Co. from bovine erythrocytes), and 0.5 mM acetylthiocholine iodide as the substrate of the enzymatic reaction. The compounds tested were added to the assay solution and preincubated with the enzyme for 5 min at 30° C. After that period, the substrate was added. The absorbance changes at 405 nm were recorded for 5 min with a microplate reader Digiscan 340T, the reaction rates were compared, and the percent inhibition due to the presence of test compounds was calculated. The reaction rate was calculated with, at least, triplicate measurements, and the percent inhibition due to the presence of test compound was calculated relative to the compound-free control.

BuChE from human serum = target: T3, BuChE from human serum (Homo sapiens, UniProt P06276); assay: Butyrylcholinesterase (BuChE) inhibition (from human serum); assay type: biochemical
T3 construct: The assay solution consisted of 0.01 units BuChE from human serum; from tissue; host or cells: human serum
Experimental: Butyrylcholinetersae (BuChE) Inhibition (from Human Serum)
BuChE inhibitory activity was evaluated at 30° C. by the colorimetric method reported by Ellman (Ellman, G. L.; Courtney, K. D.; Andres, B.; Featherstone, R. M. Biochem. Pharmacol. 1961, 7, 88-95]. The assay solution consisted of 0.01 units BuChE from human serum, 0.1 M sodium phosphate buffer pH 8, 0.3 mM 5,5′-dithiobis (2-nitrobenzoic acid) (DTNB, Ellman's reagent), and 0.5 mM butylthiocholine iodide as the substrate of the enzymatic reaction. Enzyme activity was determined by measuring the absorbance at 405 nm during 5 minutes with a microplate reader Digiscan 340T. The tested compounds were preincubated with the enzyme for 10 minutes at 30° C. The reaction rate was calculated with, at least, triplicate measurements.

[3] = system: human neuroblastoma cell line SH—SY5Y; assay: Toxicity measurement (LDH) in SH-SY5Y cells; assay type: cell-based; settings: 24 hours exposure
Experimental: The cytotoxicity effect of the molecules was tested in the human neuroblastoma cell line SH—SY5Y. These cells were cultured in 96-well plates in minimum essential medium, Han's F12 medium, supplemented with 10% fetal bovine serum, 1% glutamine and 1% penicillin/streptomycin, and grown in. a 5% CO2 humidified incubator at 37° C.
The cells were plated at 10^4 cells for each well, at least, 48 hours before the toxicity measure. Cells were exposed for 24 hours to the compounds at different concentrations (from 10^−5 to 10^−9), quantitative assessment of cell death was made by measurement of the intracellular enzyme lactate dehydrogenase (LDH) (citotoxicity detection kit, Roche). The cuantity of LDH was evaluated in a microplate reader Anthos 2010, at 492 and 620 nm. Controls were taken as 100% viability.

AChE peripheral site = AChE peripheral site (Homo sapiens, UniProt P22303); assay: Propidium competition (fluorescence); assay type: binding; settings: 20 μM propidium iodide, AChE incubated at least 6 hours with compound
Experimental: Fluorescence was measured in a Fluostar optima plate reader (BMG). Measurements were carried out in 100 μl solution volume, in 96-well plates. The buffer used was 1 mM Tris/HCl, pH 8.0. […] AChE was incubated, at least 6 hours, with the molecules at different concentrations. 20 μM propidium iodide was added 10 min before fluorescence measurement.

[4] = system: SH—SY5Y cells exposed to β-amyloid fragment 25-35; assay: Effects on β-amyloid toxicity (fragment 25-35, LDH viability); assay type: cell-based, human; settings: 1 hour pretreatment, Aβ 25-35 at 200 μM, 24 hours
Experimental: Effects on β-Amiloid Toxicity
We have tested if some of these molecules interfere with amyloid peptide toxicity. Cells SH—SY5Y were cultured in 96-well plates as toxicity experiments. Cells were pretreated for 1 hour with the compounds at different concentrations (from 10^−5 to 10^−9), immediately neuronal death is induced adding synthetic peptide β-amyloid, fragment 25-35 (A25-35) at 200 μM. 24 hours later cell viability was assessed with the LDH assay; results are reported relative to untreated wells.

β-amyloid-AChE complex = target: T4, β-amyloid-AChE complex (Homo sapiens, UniProt P22303); assay: Inhibition of β-amyloid aggregation (AChE-Aβ complex, Congo Red binding); assay type: biochemical; settings: propidium iodide 50 μM, Aβ1-40 0.1 mM, Aβ-AChE 200:1, 48 hours
T4 construct: purchased Sigma-Aldrich
Experimental: Inhibition of β-Amyloid Aggregation:
Stock solutions of Aβ1-40 at 3.5 mM were prepared in DMSO. The amount of peptide used in the assays was 0.1 mM. Human recombinant AChE (Sigma-Aldrich) was used at a molar ratio Aβ-AChE 200:1. For the aggregation studies the peptide was mixed with the appropriate amount of AChE in PBS pH 7.4 and stirred for 48 hours in -a microtiter plate at room temperature. The fibrils obtained were characterized by Congo Red (CR) binding.
For the inhibition of β-amyloid aggregation, the compounds tested were used at the IC50 defined in the previous paragraph of the biological evaluation. Propidium iodide 50 μM for comparison.

[5] = bovine erythrocytes AChE, 30° C., 5 min preincubation, read-out: IC50 AchE
[6] = human serum BuChE, 30° C., 10 min preincubation, read-out: IC50 BuChE

T3 sequence (P06276 29-602): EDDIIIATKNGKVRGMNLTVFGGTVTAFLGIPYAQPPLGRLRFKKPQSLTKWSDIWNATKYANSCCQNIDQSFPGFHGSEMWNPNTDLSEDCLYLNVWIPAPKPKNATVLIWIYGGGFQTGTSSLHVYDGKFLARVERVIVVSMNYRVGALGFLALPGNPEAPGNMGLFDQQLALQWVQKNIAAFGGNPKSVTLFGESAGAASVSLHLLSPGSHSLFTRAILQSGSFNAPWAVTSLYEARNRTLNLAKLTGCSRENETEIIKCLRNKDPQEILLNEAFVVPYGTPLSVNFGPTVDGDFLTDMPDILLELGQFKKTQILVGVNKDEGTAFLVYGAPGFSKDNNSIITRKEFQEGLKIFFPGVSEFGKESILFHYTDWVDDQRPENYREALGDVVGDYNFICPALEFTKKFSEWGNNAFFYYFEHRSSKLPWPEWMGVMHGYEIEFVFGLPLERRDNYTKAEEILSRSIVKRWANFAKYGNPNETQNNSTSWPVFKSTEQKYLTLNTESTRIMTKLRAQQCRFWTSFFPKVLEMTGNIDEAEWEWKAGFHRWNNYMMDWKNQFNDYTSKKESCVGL
Chain of AChE peripheral site (P22303 32-614): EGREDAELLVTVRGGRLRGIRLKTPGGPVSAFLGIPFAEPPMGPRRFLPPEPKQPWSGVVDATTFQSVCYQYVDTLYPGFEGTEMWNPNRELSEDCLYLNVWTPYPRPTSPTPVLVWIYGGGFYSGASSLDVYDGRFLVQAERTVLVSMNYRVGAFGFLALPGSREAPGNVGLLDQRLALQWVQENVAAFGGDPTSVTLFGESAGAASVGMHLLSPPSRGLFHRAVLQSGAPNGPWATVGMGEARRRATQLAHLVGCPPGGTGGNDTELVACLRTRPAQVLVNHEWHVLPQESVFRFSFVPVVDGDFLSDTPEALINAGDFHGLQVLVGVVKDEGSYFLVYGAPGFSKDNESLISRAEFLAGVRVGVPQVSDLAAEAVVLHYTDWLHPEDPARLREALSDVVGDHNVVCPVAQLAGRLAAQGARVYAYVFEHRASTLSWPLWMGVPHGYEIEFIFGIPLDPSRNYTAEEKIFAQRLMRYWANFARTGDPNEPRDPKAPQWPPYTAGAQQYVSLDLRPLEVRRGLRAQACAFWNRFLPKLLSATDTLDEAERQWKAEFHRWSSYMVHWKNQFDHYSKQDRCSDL
T1 sequence (P22303 32-617 isoform P22303-2 limits assumed): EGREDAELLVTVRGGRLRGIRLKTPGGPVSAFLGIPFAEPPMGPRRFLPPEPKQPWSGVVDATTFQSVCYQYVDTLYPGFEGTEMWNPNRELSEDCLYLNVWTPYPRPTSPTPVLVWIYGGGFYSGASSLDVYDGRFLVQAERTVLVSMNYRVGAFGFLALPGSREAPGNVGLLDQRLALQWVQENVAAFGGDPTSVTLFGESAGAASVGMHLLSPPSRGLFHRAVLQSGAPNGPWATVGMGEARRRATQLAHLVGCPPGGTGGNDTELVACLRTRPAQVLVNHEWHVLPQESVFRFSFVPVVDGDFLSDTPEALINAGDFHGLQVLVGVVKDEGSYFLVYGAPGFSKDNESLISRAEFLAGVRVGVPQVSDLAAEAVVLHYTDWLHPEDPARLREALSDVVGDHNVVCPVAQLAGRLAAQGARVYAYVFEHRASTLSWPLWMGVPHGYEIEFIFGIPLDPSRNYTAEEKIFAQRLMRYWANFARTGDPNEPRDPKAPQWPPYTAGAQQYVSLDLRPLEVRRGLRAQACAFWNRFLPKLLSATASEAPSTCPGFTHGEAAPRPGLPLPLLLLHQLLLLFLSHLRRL
T4 sequence (P22303 32-614, one chain of several): as the sequence (P22303 32-614) above

Compound: COc1cc2c(cc1OC)C(=O)C(CNCCCCCCNc1c3c(nc4ccccc14)CCCC3)C2 (stereo not shown) [Compound 2, 5,6-Dimethoxy-2-{[6-(1,2,3,4-tetrahydro-acridin-9-ylamino)-hexylamino]-methyl}-indan-1-one]
- IC50 [1]: 100 nM

Compound: O=C1c2ccccc2C(=O)N1CCCCCCCNc1c2c(nc3ccccc13)CCCC2 [Compound 4, 2-[7-(1,2,3,4-Tetrahydro-acridin-9-ylamino)-heptyl]-isoindole-1,3-dione]
- IC50 [2, 5]: 3000 nM
- IC50 (BuChE from human serum; [6]): 10 nM
- Toxicity [3]: >100 µM
- Propidium competition (AChE peripheral site): 10 µM

Compound: O=C1c2ccccc2C(=O)N1CCCCCCCCNc1c2c(nc3ccccc13)CCCC2 [Compound 5, 2-[8-(1,2,3,4-Tetrahydro-acridin-9-ylamino)-octyl]-isoindole-1,3-dione]
- IC50 [2, 5]: 90 nM
- IC50 (BuChE from human serum; [6]): 30 nM
- Toxicity [3]: 5 µM
- Propidium competition (AChE peripheral site): >100 µM

Compound: O=C1c2ccccc2C(=O)N1CCCCCCNc1c2ccccc2nc2ccccc12 [Compound 6, 2-[6-(Acridin-9-ylamino)-hexyl]-isoindole-1,3-dione]
- IC50 [2, 5]: 900 nM
- IC50 (BuChE from human serum; [6]): 8 nM
- Toxicity [3]: >100 µM
- Propidium competition (AChE peripheral site): 10 µM

Compound: O=C1c2ccccc2C(=O)N1CCCCCCCCNc1c2ccccc2nc2ccccc12 [Compound 8, 2-[8-(Acridin-9-ylamino)-octyl]-isoindole-1,3-dione]
- IC50 [2, 5]: 1000 nM
- IC50 (BuChE from human serum; [6]): 1000 nM
- Toxicity [3]: 100 µM
- Propidium competition (AChE peripheral site): >100 µM

Compound: O=C1c2ccccc2C(=O)N1CCCCCCCCCNc1c2ccccc2nc2ccccc12 [Compound 9, 2-[9-(Acridin-9-ylamino)-nonyl]-isoindole-1,3-dione]
- IC50 [2, 5]: 2 nM
- IC50 (BuChE from human serum; [6]): 90 nM
- Toxicity [3]: >100 µM
- Propidium competition (AChE peripheral site): 1 µM

Compound: O=C(CN1C(=O)c2ccccc2C1=O)NCCCCCCCNc1c2c(nc3cc(Cl)ccc13)CCCC2 [Compound 10, N-[7-(6-Chloro-1,2,3,4-tetrahydro-acridin-9-ylamino)-heptyl]-2-(1,3-dioxo-1,3-dihydro-isoindol-2-yl)-acetamide]
- IC50 [2, 5]: 20 nM
- IC50 (BuChE from human serum; [6]): 650 nM
- Toxicity [3]: >100 µM
- Propidium competition (AChE peripheral site): 10 µM

Compound: CN(CCCNC(=O)CN1C(=O)c2ccccc2C1=O)CCCNc1c2c(nc3cc(Cl)ccc13)CCCC2 [Compound 11, N-(3-{[3-(6-Chloro-1,2,3,4-tetrahydro-acridin-9-ylamino)-propyl]-methyl-amino}-propyl)-2-(1,3-dioxo-1,3-dihydro-isoindol-2-yl)-acetamide]
- IC50 [2, 5]: 3 nM
- IC50 (BuChE from human serum; [6]): 75 nM
- Toxicity [3]: >100 µM
- Propidium competition (AChE peripheral site): 10 µM

Compound: O=C(CN1C(=O)c2ccccc2C1=O)NCCCCCCNc1c2c(nc3cc(Cl)ccc13)CCCC2 [Compound 12, N-[6-(6-Chloro-1,2,3,4-tetrahydro-acridin-9-ylamino)-hexyl]-2-(1,3-dioxo-1,3-dihydro-isoindol-2-yl)-acetamide]
- IC50 [2, 5]: 10 nM
- IC50 (BuChE from human serum; [6]): 200 nM
- Toxicity [3]: >100 µM
- Propidium competition (AChE peripheral site): 100 µM

Compound: CCn1c(=NCCCCCCCCNc2c3c(nc4ccccc24)CCCC3)sn(C(C)C)c1=O [Compound 17, 4-Ethyl-2-isopropyl-5-[8-(1,2,3,4-tetrahydro-acridin-9-ylamino)-octylimino]-[1,2,4]thiadiazolidin-3-one]
- IC50 [2, 5]: 200 nM
- IC50 (BuChE from human serum; [6]): 10 nM
- Toxicity [3]: >100 µM
- Propidium competition (AChE peripheral site): 0.1 µM

Compound: CCn1c(=NCCCCCCNc2c3c(nc4ccccc24)CCCC3)sn(C(C)C)c1=O [Compound 18, 4-Ethyl-2-isopropyl-5-[6-(1,2,3,4-tetrahydro-acridin-9-ylamino)-hexyl-imino]-[1,2,4]thiadiazolidin-3-one]
- IC50 [2]: 2250 nM
- IC50 (BuChE from human serum): 1000 nM
- Toxicity [3]: >10 µM
- Propidium competition (AChE peripheral site): >100 µM

Compound: CN(CCCNc1c2c(nc3cc(Cl)ccc13)CCCC2)CCCNc1c2c(nc3cc(Cl)ccc13)CCCC2 [Compound 19]
- IC50 [2, 5]: 0.1 nM
- IC50 (BuChE from human serum; [6]): 1.5 nM
- Toxicity [3]: 10 µM
- Propidium competition (AChE peripheral site): 10 µM

Compound: Clc1ccc2c(NCCCCCCCNc3c4ccccc4nc4ccccc34)c3c(nc2c1)CCCC3 [Compound 23, N-Acridin-9-yl-N′-(6-chloro-1,2,3,4-tetrahydro-acridin-9-yl)-heptane-1,7-diamine]
- IC50 [2, 5]: 0.4 nM
- IC50 (BuChE from human serum; [6]): 20 nM
- Toxicity [3]: 0.5 µM
- Propidium competition (AChE peripheral site): 1 µM
- inhibition of Aβ(25-35) toxicity [4]: 1 µM

Compound: Clc1ccc2c(NCCCCCCCCNc3c4ccccc4nc4ccccc34)c3c(nc2c1)CCCC3 [Compound 24, N-Acridin-9-yl-N′-(6-chloro-1,2,3,4-tetrahydro-acridin-9-yl)-octane-1,8-diamine]
- IC50 [2, 5]: 1 nM
- IC50 (BuChE from human serum; [6]): 35 nM
- Toxicity [3]: 5 µM
- Propidium competition (AChE peripheral site): 10 µM

Compound: CC[N+](C)(CC)CCC[n+]1c(-c2ccccc2)c2cc(N)ccc2c2ccc(N)cc21 [propidium, Propidium iodide, reference compound]
- reduction of the β-amyloid-AChE complex aggregation (β-amyloid-AChE complex): 18.1%
